The values below are quoted from earlier work in patent US11304902B2, “Pharmaceutical compositions, preparation and uses thereof” (CURADIGM SAS, priority 2014, dated 2022).

Some targets named below: CYP3A4 (Homo sapiens, UniProt P08684); CYP2C19 (Homo sapiens, UniProt P33261); CYP2C9 (Homo sapiens, UniProt P11712); CYP2D6 (Homo sapiens, UniProt P10635).
What all share (conditions): human CYP enzyme
A further data set deals with T1, CYP1A1 (Homo sapiens, UniProt P04798).
T1 sequence (P04798 1-512): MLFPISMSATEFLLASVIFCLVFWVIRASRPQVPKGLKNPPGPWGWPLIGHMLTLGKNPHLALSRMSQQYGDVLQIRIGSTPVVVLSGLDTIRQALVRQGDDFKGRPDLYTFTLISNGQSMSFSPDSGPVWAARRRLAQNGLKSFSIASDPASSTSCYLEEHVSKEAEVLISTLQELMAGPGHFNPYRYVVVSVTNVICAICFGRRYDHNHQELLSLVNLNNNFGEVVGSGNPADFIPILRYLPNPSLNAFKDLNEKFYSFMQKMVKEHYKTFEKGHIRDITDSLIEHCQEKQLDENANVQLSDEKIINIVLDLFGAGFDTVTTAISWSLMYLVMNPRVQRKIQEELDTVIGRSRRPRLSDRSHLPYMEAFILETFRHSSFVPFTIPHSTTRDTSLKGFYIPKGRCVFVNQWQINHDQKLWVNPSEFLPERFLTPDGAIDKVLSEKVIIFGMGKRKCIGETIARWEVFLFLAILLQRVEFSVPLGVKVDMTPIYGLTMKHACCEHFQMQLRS

A further data set addresses T2, CYP11B1 (Homo sapiens, UniProt P15538).
T2 sequence (P15538 25-503): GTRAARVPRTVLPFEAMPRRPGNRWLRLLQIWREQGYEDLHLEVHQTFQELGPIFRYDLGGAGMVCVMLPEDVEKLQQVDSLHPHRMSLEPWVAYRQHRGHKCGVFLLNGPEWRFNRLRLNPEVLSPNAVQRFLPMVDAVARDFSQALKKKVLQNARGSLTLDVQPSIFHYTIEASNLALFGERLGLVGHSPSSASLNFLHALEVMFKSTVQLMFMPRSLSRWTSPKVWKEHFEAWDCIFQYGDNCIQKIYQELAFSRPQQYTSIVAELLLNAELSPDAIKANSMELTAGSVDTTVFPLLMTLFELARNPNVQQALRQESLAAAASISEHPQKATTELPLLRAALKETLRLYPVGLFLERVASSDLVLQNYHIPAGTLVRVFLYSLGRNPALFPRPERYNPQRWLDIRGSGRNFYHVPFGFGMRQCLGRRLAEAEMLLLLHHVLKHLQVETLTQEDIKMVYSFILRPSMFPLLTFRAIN

The target in a further data set is T3, CYP1B1 (Homo sapiens, UniProt Q16678).
T3 sequence (Q16678 1-543): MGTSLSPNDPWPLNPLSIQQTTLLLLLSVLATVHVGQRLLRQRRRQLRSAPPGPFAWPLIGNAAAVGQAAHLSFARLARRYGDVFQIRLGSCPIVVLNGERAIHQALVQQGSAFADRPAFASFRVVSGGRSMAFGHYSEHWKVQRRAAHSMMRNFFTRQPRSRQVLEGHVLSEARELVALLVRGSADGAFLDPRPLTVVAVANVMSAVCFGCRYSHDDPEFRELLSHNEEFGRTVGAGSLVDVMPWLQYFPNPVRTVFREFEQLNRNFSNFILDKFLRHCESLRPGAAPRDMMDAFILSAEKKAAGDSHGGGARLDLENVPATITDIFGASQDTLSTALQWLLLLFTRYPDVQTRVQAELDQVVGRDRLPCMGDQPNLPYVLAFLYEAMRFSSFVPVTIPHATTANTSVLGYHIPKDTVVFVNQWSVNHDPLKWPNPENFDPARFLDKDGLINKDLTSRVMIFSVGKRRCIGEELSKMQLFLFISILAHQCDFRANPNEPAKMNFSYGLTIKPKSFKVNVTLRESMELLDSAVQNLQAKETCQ

The next data set deals with T4, CYP2B6 (Homo sapiens, UniProt P20813).
T4 sequence (P20813 1-491): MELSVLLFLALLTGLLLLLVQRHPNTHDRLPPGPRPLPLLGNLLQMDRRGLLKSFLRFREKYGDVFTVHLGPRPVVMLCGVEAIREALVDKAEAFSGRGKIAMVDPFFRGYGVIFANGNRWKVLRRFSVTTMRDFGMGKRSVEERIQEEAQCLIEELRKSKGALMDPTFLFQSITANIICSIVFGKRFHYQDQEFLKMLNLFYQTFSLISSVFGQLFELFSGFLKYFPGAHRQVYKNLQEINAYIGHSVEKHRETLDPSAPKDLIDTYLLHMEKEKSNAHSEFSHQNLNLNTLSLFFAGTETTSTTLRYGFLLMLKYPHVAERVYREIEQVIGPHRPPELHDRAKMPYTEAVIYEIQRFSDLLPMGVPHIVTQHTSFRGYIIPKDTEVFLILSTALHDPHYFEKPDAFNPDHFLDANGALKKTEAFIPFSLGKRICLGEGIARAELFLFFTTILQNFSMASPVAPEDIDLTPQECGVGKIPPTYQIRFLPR

A further data set has as its target T5, CYP2C18 (Homo sapiens, UniProt P33260).
T5 sequence (P33260 26-490): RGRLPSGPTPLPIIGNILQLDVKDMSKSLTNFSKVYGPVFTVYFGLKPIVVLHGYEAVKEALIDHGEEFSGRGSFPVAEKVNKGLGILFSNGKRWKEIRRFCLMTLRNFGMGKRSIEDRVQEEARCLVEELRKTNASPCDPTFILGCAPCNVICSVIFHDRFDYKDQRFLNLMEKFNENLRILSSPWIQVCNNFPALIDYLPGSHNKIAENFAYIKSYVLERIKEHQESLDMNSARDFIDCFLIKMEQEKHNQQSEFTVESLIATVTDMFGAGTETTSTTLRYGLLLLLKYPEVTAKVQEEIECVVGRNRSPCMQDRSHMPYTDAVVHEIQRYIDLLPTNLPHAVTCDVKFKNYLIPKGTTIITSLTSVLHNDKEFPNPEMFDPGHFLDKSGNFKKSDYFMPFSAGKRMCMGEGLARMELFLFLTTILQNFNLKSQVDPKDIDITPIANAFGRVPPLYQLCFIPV

The target in a further data set is T6, CYP1A2 (Homo sapiens, UniProt P05177).
T6 sequence (P05177 1-516): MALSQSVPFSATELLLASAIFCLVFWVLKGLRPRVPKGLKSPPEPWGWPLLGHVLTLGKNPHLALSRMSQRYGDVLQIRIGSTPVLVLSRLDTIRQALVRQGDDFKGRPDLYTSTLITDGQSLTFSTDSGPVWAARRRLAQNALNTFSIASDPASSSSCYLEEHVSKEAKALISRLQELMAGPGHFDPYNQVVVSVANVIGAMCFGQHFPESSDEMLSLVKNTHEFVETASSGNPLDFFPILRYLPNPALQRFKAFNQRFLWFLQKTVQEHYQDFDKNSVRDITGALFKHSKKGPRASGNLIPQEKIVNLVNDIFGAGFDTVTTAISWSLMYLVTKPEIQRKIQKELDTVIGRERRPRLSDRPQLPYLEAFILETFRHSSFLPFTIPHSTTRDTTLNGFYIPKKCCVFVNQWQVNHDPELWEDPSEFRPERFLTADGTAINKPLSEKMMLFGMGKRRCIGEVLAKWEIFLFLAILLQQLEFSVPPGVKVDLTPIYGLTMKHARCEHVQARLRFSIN

A further data set concerns the target T7, CYP2C8 (Homo sapiens, UniProt P10632).
T7 sequence (P10632 1-490): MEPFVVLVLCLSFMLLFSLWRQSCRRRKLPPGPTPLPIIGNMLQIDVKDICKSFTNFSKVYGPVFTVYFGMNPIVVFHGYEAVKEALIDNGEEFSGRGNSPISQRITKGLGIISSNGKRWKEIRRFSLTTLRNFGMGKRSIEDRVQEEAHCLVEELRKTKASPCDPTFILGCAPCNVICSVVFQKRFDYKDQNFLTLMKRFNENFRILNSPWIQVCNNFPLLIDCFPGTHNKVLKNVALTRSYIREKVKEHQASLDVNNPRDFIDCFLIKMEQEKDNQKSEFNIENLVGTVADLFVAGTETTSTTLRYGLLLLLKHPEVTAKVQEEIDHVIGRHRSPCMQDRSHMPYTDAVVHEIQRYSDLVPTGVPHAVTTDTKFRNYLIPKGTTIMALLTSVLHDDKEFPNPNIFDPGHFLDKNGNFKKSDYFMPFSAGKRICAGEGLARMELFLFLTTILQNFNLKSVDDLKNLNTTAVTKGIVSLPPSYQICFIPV

“Also recorded” adds a separate entry of the source. Where two headings read alike, the source gives them in different places.

Sequence of CYP3A4 (P08684 whole entry): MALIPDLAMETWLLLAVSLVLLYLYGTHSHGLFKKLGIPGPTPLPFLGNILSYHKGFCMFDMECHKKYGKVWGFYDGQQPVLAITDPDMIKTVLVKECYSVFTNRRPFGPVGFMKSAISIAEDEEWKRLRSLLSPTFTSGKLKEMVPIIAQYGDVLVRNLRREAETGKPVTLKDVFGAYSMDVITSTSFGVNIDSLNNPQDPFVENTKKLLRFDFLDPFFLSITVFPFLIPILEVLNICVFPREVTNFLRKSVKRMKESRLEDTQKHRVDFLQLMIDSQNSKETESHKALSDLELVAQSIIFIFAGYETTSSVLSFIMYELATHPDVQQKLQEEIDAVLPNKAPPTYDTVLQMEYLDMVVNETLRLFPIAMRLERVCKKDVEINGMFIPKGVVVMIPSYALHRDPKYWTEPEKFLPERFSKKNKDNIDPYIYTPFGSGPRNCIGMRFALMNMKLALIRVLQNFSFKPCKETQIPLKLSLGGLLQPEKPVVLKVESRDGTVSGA
Sequence of CYP2D6 (P10635 whole entry): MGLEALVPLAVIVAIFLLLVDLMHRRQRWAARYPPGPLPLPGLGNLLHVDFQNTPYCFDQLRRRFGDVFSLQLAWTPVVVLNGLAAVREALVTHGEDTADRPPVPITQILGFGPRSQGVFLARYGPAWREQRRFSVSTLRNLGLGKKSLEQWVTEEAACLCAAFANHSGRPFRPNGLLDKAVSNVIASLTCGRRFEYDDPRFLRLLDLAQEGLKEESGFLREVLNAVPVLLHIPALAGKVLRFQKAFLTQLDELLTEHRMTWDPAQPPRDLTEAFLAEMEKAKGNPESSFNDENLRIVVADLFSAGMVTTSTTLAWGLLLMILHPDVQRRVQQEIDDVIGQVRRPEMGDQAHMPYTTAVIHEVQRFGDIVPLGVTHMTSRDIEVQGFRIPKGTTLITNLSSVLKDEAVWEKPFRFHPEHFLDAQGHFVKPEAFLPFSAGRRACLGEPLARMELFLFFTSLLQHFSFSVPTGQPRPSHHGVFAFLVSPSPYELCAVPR
Sequence of CYP2C19 (P33261 whole entry): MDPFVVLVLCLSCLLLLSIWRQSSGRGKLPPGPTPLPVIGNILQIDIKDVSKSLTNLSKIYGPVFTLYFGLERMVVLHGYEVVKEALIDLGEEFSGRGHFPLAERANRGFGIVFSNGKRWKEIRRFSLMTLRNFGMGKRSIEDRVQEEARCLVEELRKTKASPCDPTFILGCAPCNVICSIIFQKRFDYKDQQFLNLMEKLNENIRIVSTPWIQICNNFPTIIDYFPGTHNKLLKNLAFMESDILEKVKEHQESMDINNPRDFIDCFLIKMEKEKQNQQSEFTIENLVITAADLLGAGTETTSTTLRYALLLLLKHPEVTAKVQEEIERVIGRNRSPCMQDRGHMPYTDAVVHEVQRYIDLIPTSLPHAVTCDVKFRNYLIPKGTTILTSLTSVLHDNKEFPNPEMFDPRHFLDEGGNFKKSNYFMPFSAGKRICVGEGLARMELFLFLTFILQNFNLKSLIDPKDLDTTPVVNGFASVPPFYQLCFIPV
Sequence of CYP2C9 (P11712 whole entry): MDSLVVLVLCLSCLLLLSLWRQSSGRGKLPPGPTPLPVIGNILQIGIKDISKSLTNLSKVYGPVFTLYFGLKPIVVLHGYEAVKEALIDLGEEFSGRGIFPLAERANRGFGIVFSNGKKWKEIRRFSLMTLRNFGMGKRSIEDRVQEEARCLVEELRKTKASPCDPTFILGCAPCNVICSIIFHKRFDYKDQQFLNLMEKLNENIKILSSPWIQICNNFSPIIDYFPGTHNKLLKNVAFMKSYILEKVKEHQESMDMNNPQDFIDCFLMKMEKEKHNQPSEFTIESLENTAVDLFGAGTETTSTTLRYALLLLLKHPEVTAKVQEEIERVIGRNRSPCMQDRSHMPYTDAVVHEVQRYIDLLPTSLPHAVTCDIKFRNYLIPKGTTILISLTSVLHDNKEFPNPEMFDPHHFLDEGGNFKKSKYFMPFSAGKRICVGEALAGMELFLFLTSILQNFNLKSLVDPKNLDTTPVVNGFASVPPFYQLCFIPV

On to `O=c1cc(-c2ccc(O)cc2)oc2cc(O)cc(O)c12` [Apigenin, apigenin], for which the “role towards CYP1A1 (substrate / inhibitor / inducer)” value on CYP1A1 was “Inhibitor”.
In the case of `O=C1C[C@@H](c2ccc(O)cc2)Oc2cc(O)cc(O)c21` [Naringenin, naringenin], the “role towards CYP3A4 (substrate / inhibitor / inducer)” value on CYP3A4 is “inhibitor”. For the same compound, on CYP11B1, the “role towards CYP11B1 (substrate / inhibitor / inducer)” value is reported as “Inhibitor”.
For `CC(=O)O[C@H]1C(=O)[C@@]2(C)[C@H]([C@H](OC(=O)c3ccccc3)[C@]3(O)C[C@H](OC(=O)[C@H](O)[C@@H](NC(=O)c4ccccc4)c4ccccc4)C(C)=C1C3(C)C)[C@]1(OC(C)=O)CO[C@@H]1C[C@@H]2O` [Paclitaxel, paclitaxel], the “role towards CYP3A4 (substrate / inhibitor / inducer)” value at CYP3A4 is listed as “Substrate; also recorded: inhibitor”.
Turning to `CC(=O)O[C@@]12CO[C@@H]1C[C@H](O)[C@@]1(C)C(=O)[C@H](O)C3=C(C)[C@@H](OC(=O)[C@H](O)[C@@H](NC(=O)OC(C)(C)C)c4ccccc4)C[C@@](O)([C@@H](OC(=O)c4ccccc4)[C@H]21)C3(C)C` [Docetaxel, docetaxel], the “role towards CYP3A4 (substrate / inhibitor / inducer)” value on CYP3A4 is “Substrate”; on CYP3A4 (listed as docetaxel), “substrate”. Besides, at CYP1B1, the “role towards CYP1B1 (substrate / inhibitor / inducer)” value is “Substrate; also recorded: inhibitor”.
`O=C1Nc2ccc(Cl)cc2[C@@](C#CC2CC2)(C(F)(F)F)O1` [Efavirenz, efavirenz]: the “role towards CYP2C19 (substrate / inhibitor / inducer)” value at CYP2C19 was “inhibitor”. The “role towards CYP2B6 (substrate / inhibitor / inducer)” value at CYP2B6 is “Substrate; also recorded: inhibitor”. Moreover, the “role towards CYP2C9 (substrate / inhibitor / inducer)” value at CYP2C9 is “inhibitor”. The “role towards CYP2D6 (substrate / inhibitor / inducer)” value at CYP2D6 is listed as “inhibitor”.
Consider `CC(=O)CC(c1ccccc1)c1c(O)c2ccccc2oc1=O` (stereo not drawn) [Warfarin, warfarin], for which the “role towards CYP2C18 (substrate / inhibitor / inducer)” value at CYP2C18 is recorded as “Substrate”. Besides, the “role towards CYP1A1 (substrate / inhibitor / inducer)” value on CYP1A1 is given as “Substrate”. On CYP3A4, the “role towards CYP3A4 (substrate / inhibitor / inducer)” value is reported as “Substrate”. Further, the “role towards CYP1A2 (substrate / inhibitor / inducer)” value at CYP1A2 is “Substrate”. In addition, the “role towards CYP2C8 (substrate / inhibitor / inducer)” value on CYP2C8 was “Substrate”.
Turning to `CC1=C(/C=C/C(C)=C/C=C/C(C)=C/CO)C(C)(C)CCC1` [Vitamin A retinol, retinol], the “role towards CYP1A1 (substrate / inhibitor / inducer)” value on CYP1A1 is given as “Inhibitor”. In addition, the “role towards CYP2B6 (substrate / inhibitor / inducer)” value on CYP2B6 is recorded as “Inhibitor”. In addition, the “role towards CYP2D6 (substrate / inhibitor / inducer)” value at CYP2D6 is given as “Substrate”. In addition, the “role towards CYP2C8 (substrate / inhibitor / inducer)” value at CYP2C8 is recorded as “Inhibitor; also recorded: Substrate”.
With `COc1cccc2c1C(=O)c1c(O)c3c(c(O)c1C2=O)C[C@@](O)(C(=O)CO)C[C@@H]3O[C@H]1C[C@H](N)[C@H](O)[C@H](C)O1` [Doxorubicin, doxorubicin], at CYP3A4, the “role towards CYP3A4 (substrate / inhibitor / inducer)” value is listed as “Substrate; also recorded: inhibitor”. In addition, the “role towards CYP2D6 (substrate / inhibitor / inducer)” value at CYP2D6 is “inhibitor”.
For the compound `CO[C@H]1/C=C/O[C@@]2(C)Oc3c(C)c(O)c4c(O)c(c(/C=N/N5CCN(C)CC5)c(O)c4c3C2=O)NC(=O)/C(C)=C\C=C\[C@H](C)[C@H](O)[C@@H](C)[C@@H](O)[C@@H](C)[C@H](OC(C)=O)[C@@H]1C` [Rifampin, rifampin], at CYP2C18, the “role towards CYP2C18 (substrate / inhibitor / inducer)” value is recorded as “inducer”. The “role towards CYP2B6 (substrate / inhibitor / inducer)” value on CYP2B6 was “inducer”.
